Publication PMC5554220, “A Novel Aldosterone Antagonist Limits Renal Injury in 5/6 Nephrectomy” (Scientific Reports, 2017)

Experiments:
[1] = tested on: rats with 5/6 renal ablation (Nx); experiment: Protocol 1 (early treatment), 5/6 renal ablation (Nx); type: in vivo, male Munich-Wistar rats
Description: (§1) One-hundred forty-five adult male Munich-Wistar rats, obtained from a local facility at the Faculty of Medicine, University of São Paulo, weighing between 220 and 250 g, were used in this study. All experimental procedures were approved by the local Research Ethics Committee (Comissão de Ética para Análise de Projetos de Pesquisa do Hospital das Clínicas da Faculdade de Medicina da Universidade de São Paulo, CAPPesq, process n° 0905/09), and carried out following strictly our institutional guidelines and current international standards for manipulation and care of laboratory animals. Body weights and general conditions were assessed daily. Five-sixths renal ablation (Nx) was performed as a single-step procedure under anesthesia with ketamine 50 mg/kg and xylazine 10 mg/kg im. After ventral laparotomy, the right kidney was excised and two or three branches of the left renal artery were ligated, so as to promote infarction of two-thirds of the left kidney. The operation was invariably well tolerated. Sham-operated rats underwent anesthesia and manipulation of the renal pedicles without removal of renal mass. After surgery, rats received enrofloxacin and, upon recovery, had free access to tap water and regular rodent chow containing 0.5 Na and 22% protein (Nuvital Labs, Curitiba, Brazil), and were kept at 23 ± 1 °C and 60 ± 5% relative air humidity, under an artificial 12–12 hour light/dark cycle. Rats were then treated following two different experimental protocols (described later).
In this first protocol, Nx rats were divided into groups: NX + V (N = 8), receiving vehicle; NX + Eple (N = 8), receiving oral (mixed with the chow) Eple, 150 mg/kg/day; and Nx + Ly (N = 8), receiving oral Ly, 20 mg/kg/day. A group of sham-operated rats (S, N = 7) was also studied. Treatments were started 24 h after surgery. Rats were followed during 60 days, with determination of TCP and UalbV on Days 30 and 60. TCP was assessed with an optoelectronic automated device (Visitech Systems, Apex, NC), after rats had been preconditioned so as to remain calm during the procedure. UalbV was measured with a conventional immunodiffusion technique. On Day 60, rats were anesthetized as described before, and blood was collected from the abdominal aorta for determination of serum creatinine, serum K^+, PRA and PAC. The remnant kidney was then perfusion-fixed with Duboscq-Brazil solution after a brief washout with saline to remove blood from renal vessels, and prepared for histomorphometric and immunohistochemical analyses using conventional sequential techniques.
(§2) Histomorphometric analysis was performed blindly by two independent observers. The extent of glomerular injury was estimated, in PAS-stained sections, by determining the percentage of glomeruli with sclerotic lesions. The fraction of the renal cortical area occupied by interstitial tissue (%INT) was estimated in 25 consecutive microscopic fields of Masson-stained sections by a point-counting technique, at a final magnification of 200X, under a 144-point grid.
PRA and PAC were determined using commercially available radioimmunoassay kits (Renin Active IRMA and Aldosterone Active RIA, Beckman Coulter, Carlsbad, CA).

[2] = tested on: rats with 5/6 renal ablation (Nx); experiment: Protocol 2 (late treatment), 5/6 renal ablation (Nx); type: in vivo, male Munich-Wistar rats
Description: as §1
In Protocol 2, adult male Munich-Wistar rats were subjected to Nx as described earlier, and left untreated for two months. At this time, TCP and UalbV were assessed as described earlier. Rats with TCP ≤ 170 mmHg or UalbV ≤ 40 mg/day were excluded from the study. The remaining […] Nx rats were divided into four experimental groups: Nx + V (N = 14), untreated Nx rats; Nx + L (N = 15), receiving oral L, 50 mg/kg in drinking water; Nx + L + Eple (N = 14), receiving L and Eple (N = 14), 150 mg/kg/day; and Nx + L + Ly (N = 14), receiving L and Ly (20 mg/kg/day) as described before. A group of S rats (N = 16) was also included. All groups were followed for 90 days after treatments were started (150 days after nephrectomy), with monthly measurement of TCP and UalbV. At the end of this period, rats were anesthetized, blood was collected, and the renal tissue was perfusion-fixed and prepared for histomorphometric and immunohistochemical examination in the same manner as for Protocol 1.
as §2
Immunohistochemistry was performed on 4-μm-thick sections, mounted on glass slides precoated with 2% silane. Sections were deparaffinized and rehydrated by conventional techniques, then heated in citrate buffer for antigen retrieval and incubated overnight with the primary antibody at 4 °C (no antibody in negative control experiments). Primary antibodies used were: monoclonal mouse anti-rat ED-1 (Serotec, Oxford, UK); polyclonal rabbit anti-human AngII (Peninsula Laboratories, San Carlos, CA); and polyclonal rabbit anti-collagen I (Abcam, Cambridge, UK).
For ED-1 detection, sections were preincubated with 5% normal rabbit serum to prevent nonspecific binding, then incubated overnight at 4 °C with the primary antibody diluted in BSA at 1%. […]

Nx rats = experiment: Preliminary experiments to determine the doses of Eple and Ly; type: in vivo
Method: Preliminary experiments were performed to exclude the possibility that any differences between Eple and Ly, both in monotherapy and as add-ons to L, were simply due to the use of inadequately low doses of either compound. In the first set of experiments, Nx rats received Eple at the recommended dose of 85 mg/kg, and at 150 mg/kg, higher than in most studies reported so far. […] Other Nx rats received Ly at either 12 mg/kg (the recommended dose) or 20 mg/kg. […] Based on these preliminary results, we set the doses of Eple and Ly at 150 mg/kg and 20 mg/kg, respectively.

[3] = biological target: T1, human glucocorticoid receptor (hGR) (Homo sapiens, UniProt P04150); experiment: Radioligand binding, hGR expressed in HEK293 cells; details: hGR expressed in HEK293 cells; read-out: Mean Ki ± SEM hGR*
T1 construct: expressed in transfected cells; host or cells: HEK293 cells
T1 sequence (P04150 1-777): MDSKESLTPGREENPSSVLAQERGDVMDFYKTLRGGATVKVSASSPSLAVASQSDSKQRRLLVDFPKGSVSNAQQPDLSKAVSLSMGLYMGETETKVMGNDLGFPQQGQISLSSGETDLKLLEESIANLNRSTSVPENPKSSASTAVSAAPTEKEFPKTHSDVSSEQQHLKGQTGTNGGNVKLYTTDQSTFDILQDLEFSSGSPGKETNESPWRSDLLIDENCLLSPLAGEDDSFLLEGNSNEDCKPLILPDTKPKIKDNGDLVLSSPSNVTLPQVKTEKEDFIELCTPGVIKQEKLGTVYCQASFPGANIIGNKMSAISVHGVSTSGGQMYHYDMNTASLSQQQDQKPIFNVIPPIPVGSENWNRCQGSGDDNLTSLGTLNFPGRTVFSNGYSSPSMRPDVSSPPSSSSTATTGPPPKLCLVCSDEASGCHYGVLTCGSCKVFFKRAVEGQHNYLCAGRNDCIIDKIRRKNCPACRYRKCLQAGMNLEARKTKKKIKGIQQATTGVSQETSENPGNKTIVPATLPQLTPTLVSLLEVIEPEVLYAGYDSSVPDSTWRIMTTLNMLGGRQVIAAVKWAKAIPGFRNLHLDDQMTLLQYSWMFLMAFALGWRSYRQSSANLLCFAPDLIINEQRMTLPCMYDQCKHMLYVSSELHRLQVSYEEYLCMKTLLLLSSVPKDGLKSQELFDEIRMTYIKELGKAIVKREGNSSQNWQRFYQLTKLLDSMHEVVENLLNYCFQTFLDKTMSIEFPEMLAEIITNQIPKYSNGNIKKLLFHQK
Method: Affinity of ligands to the soluble receptor was determined using vacuum filtration methods, preparing soluble receptors in 96-well Falcon polystyrene plates (BD Biosciences, Bedford, MA) in a total volume of 250 μl. The hMR Sf9 lysate (approximately 20–25 μg protein in 20 μl) was incubated in the absence or presence of competing ligands with 10 μl of [1,2,6,7-3H] […] Binding studies for ligands for hPR and hAR were determined using [1,2,6,7-3H(N)] Progesterone (specific activity 103 Ci/mmol, at a final concentration 0.5 nM; NET381, NEN/Perkin Elmer Life Sciences, Boston, MA) and [17α-methyl-3H] Mibolerone, an enzymaticaly stable analog of testosterone (specific activity 76.8 Ci/mmol, final concentration 0.3 nM; NET919, NEN), respectively. Specific binding of 3H-progesterone for hPR and 3H-mibolerone for hAR was determined in the presence and absence of 1 μM mifepristone. Inhibition constants (Ki), were determined either from the Cheng-Prusoff equation[32], or directly using non-linear regression curve fitting to a three-parameter one-site competitive equation. Ki values obtained from individual concentration response curves were reported as the mean ± SEM. Protein was measured using colorimetric detection and quantification of bicinchoninic acid (BCA Protein Assay, Pierce, Rockford, IL). Cos-7L cells were cotransfected with expression vectors and a reporter plasmid responsive to all 3 nuclear hormone receptors. pBluescript II SK (+) (Stratagene, San Diego, CA) was included as a source of carrier DNA. The number of repetitions of full concentration response curves (n) represents values from at least two independent experiments for each condition. Concentration response curves were analyzed statistically using a four-parameter logistic equation (Hill equation for sigmoid curves). Similar methodology was adopted for the human glucocorticoid receptor (hGR) expressed in HEK293 cells.

Row | SMILES | Albumin excretion rate (UalbV) ([1]; 60 days after ablation, Eple 150 mg/kg/day, Ly 20 mg/kg/day oral) | Fractional cortical interstitial area ([1]; Day 60) | Left kidney weight corrected for body weight (renal hypertrophy) ([1]; Day 60) | Plasma aldosterone concentration (PAC) ([1]; Day 60) | Plasma K+ levels ([1]; Day 60, versus Nx + V) | Tail-cuff pressure (TCP) ([1]; Eple 150 mg/kg/day, Ly 20 mg/kg/day oral) | Plasma renin activity (PRA) ([2]; Day 150) | Maximal nontoxic dose, defined by stunting of body growth (Nx rats) [mg/kg] | Dose-response effect on the parameters studied (Nx rats; Eple 85 mg/kg vs 150 mg/kg) | PRA (Nx rats; Eple 150 mg/kg dose vs 85 mg/kg) | Body growth (Nx rats; Eple, dose higher than 150 mg/kg) | Ki [3] [nM] | Density of interstitial AngII+ cells ([2]; Day 150) | Interstitial macrophage infiltration ([2]; Day 150) | Percent cortical area occupied by collagen I (interstitial fibrosis) ([2]; Day 150) | Percentage of glomeruli with sclerotic lesions (GS%) ([2]; Day 150) | Plasma aldosterone concentration (PAC) ([2]; Day 150) | Albumin excretion rate (UalbV) ([2]; treatment Day 60-150) | Tail-cuff pressure (TCP) ([2]; treatment Day 60-150, L 50 mg/kg, Eple 150 mg/kg/day, Ly 20 mg/kg/day)
1 | COC(=O)[C@@H]1CC2=CC(=O)CC[C@]2(C)[C@@]23O[C@@H]2C[C@@]2(C)[C@@H](CC[C@@]24CCC(=O)O4)[C@H]13 [Eplerenone, eplerenone, reference compound] | slightly, but not significantly, attenuated | only slightly attenuated | no effect on renal weight | exacerbated hyperaldosteronemia | not aggravated | partially prevented the elevation of TCP | significantly elevated compared to S, Nx and Nx + L | 150 | No dose-response effect was observed | slight increase in PRA | body growth limitation | – | – | – | – | – | – | – | –
2 | CC(=O)S[C@@H]1CC2=CC(=O)CC[C@]2(C)[C@H]2CC[C@@]3(C)[C@@H](CC[C@@]34CCC(=O)O4)[C@H]12 [Spironolactone, spironolactone, reference compound] | – | – | – | – | – | – | – | – | – | – | – | 33 ± 7 | – | – | – | – | – | – | –
3 | CCCCc1nc(Cl)c(CO)n1Cc1ccc(-c2ccccc2-c2nn[nH]n2)cc1 [L, losartan] | – | – | – | – | – | – | normalized PRA | – | – | – | – | – | not significantly altered | numerically but not significantly reduced | failed to reduce significantly | partly prevented GS | significantly reduced PAC compared to S or Nx + V | prevented the progression of albuminuria | mitigated
